In patent US10590113B2, “6-hydroxy-4-oxo-1,4-dihydropyrimidine-5-carboxamides as APJ agonists” (priority 2016, dated 2020):

The molecules below were run against T1, human APJ receptor (Homo sapiens, UniProt P35414) (assay: Intracellular cAMP Accumulation Assay (APJ hcAMP, HTRF)). Conditions: human APJ, intracellular cAMP accumulation; read-out: hAPJ cAMP EC50 Potency range.
T1 construct: expressed in transfected cells; host or cells: HEK293
T1 sequence (P35414 1-380): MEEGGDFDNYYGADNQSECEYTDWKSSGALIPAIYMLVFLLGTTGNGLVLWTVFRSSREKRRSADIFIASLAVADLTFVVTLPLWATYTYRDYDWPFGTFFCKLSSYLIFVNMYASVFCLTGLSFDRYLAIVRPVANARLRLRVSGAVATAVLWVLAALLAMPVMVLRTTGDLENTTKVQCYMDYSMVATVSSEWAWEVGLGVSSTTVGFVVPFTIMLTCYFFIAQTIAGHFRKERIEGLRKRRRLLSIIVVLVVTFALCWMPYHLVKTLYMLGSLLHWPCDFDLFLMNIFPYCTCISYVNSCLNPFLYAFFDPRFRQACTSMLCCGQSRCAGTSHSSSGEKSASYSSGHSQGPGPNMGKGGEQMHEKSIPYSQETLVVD
Assay type: cell-based
Summary of the method: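 Stably transfected HEK293 cells (5,000/well) incubated 30 min at room temperature with serially diluted compound, […] and 2 μM forskolin. cAMP measured by HTRF after 60 min with detection reagents, quantified against a cAMP standard curve; EC50 from variable-slope sigmoidal fit of inhibition of forskolin-stimulated cAMP.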

EC50, 10 to 100 nM:
CCCCc1nc(=O)c(C(=O)N2CC[C@@H](c3ccccc3)C2)c(O)n1C(C)c1ccccc1Cl (stereo partly drawn) [Example 133, 2-butyl-3-[1-(2-chlorophenyl)ethyl]-6-hydroxy-5-[(3S)-3-phenylpyrrolidine-1-carbonyl]-3,4-dihydropyrimidin-4-one]
CCCCc1nc(=O)c(C(=O)N2CC[C@H](c3ccccc3)C2)c(O)n1C(C)c1ccccc1Cl (stereo partly drawn) [Example 134, 2-butyl-3-[1-(2-chlorophenyl)ethyl]-6-hydroxy-5-[(3R)-3-phenylpyrrolidine-1-carbonyl]-3,4-dihydropyrimidin-4-one]
CCCCc1nc(=O)c(C(=O)N2CC[C@@H](c3ccccc3)C2)c(O)n1[C@H](C)c1ccccc1OC [Example 135, 2-butyl-6-hydroxy-3-[(1R)-1-(2-methoxyphenyl)ethyl]-5-[(3S)-3-phenylpyrrolidine-1-carbonyl]-3,4-dihydropyrimidin-4-one]
CCCCc1nc(=O)c(C(=O)N2CC[C@@H](c3ccccc3)C2)c(O)n1C(C)c1ccccc1 (stereo partly drawn) [Example 136, 2-butyl-6-hydroxy-3-(1-phenylethyl)-5-[(3S)-3-phenylpyrrolidine-1-carbonyl]-3,4-dihydropyrimidin-4-one]
CCCCc1nc(=O)c(C(=O)N2CC[C@H](c3ccccc3)C2)c(O)n1[C@@H](CCC)c1ccccc1 [Example 137, 2-butyl-6-hydroxy-3-[(1S)-1-phenylbutyl]-5-[(3R)-3-phenylpyrrolidine-1-carbonyl]-3,4-dihydropyrimidin-4-one]
CCCCc1nc(=O)c(C(=O)N2CC[C@H](c3ccccc3)C2)c(O)n1[C@@H](C)c1cccc(C#N)c1 [Example 138, 3-[(1S)-1-{2-butyl-4-hydroxy-6-oxo-5-[(3R)-3-phenylpyrrolidine-1-carbonyl]-1,6-dihydropyrimidin-1-yl}ethyl]benzonitrile]
CCCCc1nc(=O)c(C(=O)N2CC[C@H](c3ccccc3)C2)c(O)n1[C@@H](C)c1cccc(OC)c1 [Example 139, 2-butyl-6-hydroxy-3-[(1S)-1-(3-methoxyphenyl)ethyl]-5-[(3R)-3-phenylpyrrolidine-1-carbonyl]-3,4-dihydropyrimidin-4-one]
CCCCc1nc(=O)c(C(=O)N2CC[C@H](c3ccccc3)C2)c(O)n1C(C)c1cccnc1 (stereo partly drawn) [Example 140, 2-butyl-6-hydroxy-5-[(3R)-3-phenylpyrrolidine-1-carbonyl]-3-[1-(pyridin-3-yl)ethyl]-3,4-dihydropyrimidin-4-one]
CCCCc1nc(=O)c(C(=O)N2CC[C@H](c3ccccc3)C2)c(O)n1[C@@H](C)c1ccccc1 [Example 141, 2-butyl-6-hydroxy-3-[(1S)-1-phenylethyl]-5-[(3R)-3-phenylpyrrolidine-1-carbonyl]-3,4-dihydropyrimidin-4-one]
CCCCc1nc(=O)c(C(=O)N2CC[C@H](c3ccccc3)C2)c(O)n1[C@H](C)C1CC1 [Example 142, 2-butyl-3-[(1R)-1-cyc1opropylethyl]-6-hydroxy-5-[(3R)-3-phenylpyrrolidine-1-carbonyl]-3,4-dihydropyrimidin-4-one]
CCCCc1nc(=O)c(C(=O)N2CC[C@@H](c3ccccc3)C2)c(O)n1[C@@H](C)c1ccc(F)cc1 [Example 143, 2-butyl-3-[(1S)-1-(4-fluorophenyl)ethyl]-6-hydroxy-5-[(3S)-3-phenylpyrrolidine-1-carbonyl]-3,4-dihydropyrimidin-4-one]
CCCCc1nc(=O)c(C(=O)N2CC[C@@H](c3ccccc3)C2)c(O)n1C(C)c1cccnc1 (stereo partly drawn) [Example 146, 2-butyl-6-hydroxy-5-[(3S)-3-phenylpyrrolidine-1-carbonyl]-3-[1-(pyridin-3-yl)ethyl]-3,4-dihydropyrimidin-4-one]
